From patent US20250282799A1, “SUBSTITUTED PYRIDO[4,3-d]PYRIMIDINES AS KRAS MODULATORS” (Alterome Therapeutics, Inc., priority 2023, published 2025) come the findings set out here.

For the assay, the system named is KRAS G12V dependent lung adenocarcinoma cell line, NCI-H441. The experiment in a line: Cellular pERK (Thr202/Tyr204) FRET/HTRF assay. Type of assay: cell-based. The following applies: Homo sapiens, NCI-H441, cellular pERK HTRF, NCI-H441 (KRAS G12V) cells. The procedure, abridged:
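Read-out is a wash-free FRET sandwich immunoassay for endogenous ERK1/2 phosphorylated on Thr202/Tyr204. Signal was measured in NCI-H441 lung adenocarcinoma cells after 1 hr compound exposure at 37 °C. IC50 values come from fitted concentration-response curves.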
For orientation: Time-resolved FRET reads energy transfer from a long-lived donor to a nearby acceptor.

The IC50 is the concentration that inhibits the measured activity by half. Higher therefore signals weaker potency in that assay. As for `C#Cc1c(F)ccc2cc(N)cc(-c3ncc4c(N5CCOCC6C(Cl)C65)nc(OC[C@@]56CCCN5CC(=C)C6)nc4c3C)c12` (stereo partly drawn) [Example 443, 4-(4-(8-chloro-5-oxa-2-azabicyclo[5.1.0]octan-2-yl)-8-methyl-2-(((S)-2-methylenetetrahydro-1H-pyrrolizin-7a(5H)-yl)methoxy)pyrido[4,3-d]pyrimidin-7-yl)-5-ethynyl-6-fluoronaphthalen-2-amine], the concentration for half-maximal inhibition (IC50) is less than 50 nM. Consider `C#Cc1c(F)ccc2cc(N)cc(-c3ncc4c(N5CCOCC6C(Cl)C65)nc(OC[C@]56CC(=C)CN5CCC65CC5)nc4c3C)c12` (stereo partly drawn) [Example 444, 4-(4-(8-chloro-5-oxa-2-azabicyclo[5.1.0]octan-2-yl)-8-methyl-2-(((R)-6′-methylenetetrahydrospiro[cyclopropane-1,1′-pyrrolizin]-7a′(5′H)-yl)methoxy)pyrido[4,3-d]pyrimidin-7-yl)-5-ethynyl-6-fluoronaphthalen-2-amine], for which the IC50 was less than 50 nM. As for `[2H]C([2H])(Oc1nc(N2CCOC[C@H]3[C@H](F)[C@H]32)c2cnc(-c3cc(O)cc4ccc(F)c(C#C)c34)c(C)c2n1)[C@@]12CCCN1C[C@H](F)C2` [Example 445, 5-Ethynyl-6-fluoro-4-(4-((1S,7S,8S)-8-fluoro-5-oxa-2-azabicyclo[5.1.0]octan-2-yl)-2-(((2R,7aS)-2-fluorotetrahydro-1H-pyrrolizin-7a(5H)-yl)methoxy-d2)-8-methylpyrido[4,3-d]pyrimidin-7-yl)naphthalen-2-ol], the IC50 was less than 50 nM. Compound `[2H]C([2H])(Oc1nc(N2CCOC[C@H]3[C@H](F)[C@H]32)c2cnc(-c3cc(O)cc4ccc(F)c(C#C)c34)c(C)c2n1)[C@@]12CCCN1CC(=C)C2` [Example 446, 5-Ethynyl-6-fluoro-4-(4-((1S,7S,8S)-8-fluoro-5-oxa-2-azabicyclo[5.1.0]octan-2-yl)-8-methyl-2-(((S)-2-methylenetetrahydro-1H-pyrrolizin-7a(5H)-yl)methoxy-d2)pyrido[4,3-d]pyrimidin-7-yl)naphthalen-2-ol] came in with an IC50 of less than 50 nM. `C#Cc1c(F)ccc2cc(O)cc(-c3ncc4c(N5CCOC[C@H]6[C@H](F)[C@H]65)nc(OC[C@@]56CCCN5C/C(=C/F)C6)nc4c3C)c12` [Example 447, 5-ethynyl-6-fluoro-4-(4-((1S,7S,8S)-8-fluoro-5-oxa-2-azabicyclo[5.1.0]octan-2-yl)-2-(((S,E)-2-(fluoromethylene)tetrahydro-1H-pyrrolizin-7a(5H)-yl)methoxy)-8-methylpyrido[4,3-d]pyrimidin-7-yl)naphthalen-2-ol] registered an IC50 of less than 50 nM. The same measure for `[2H]C([2H])(Oc1nc(N2CCOC[C@H]3[C@H](F)[C@H]32)c2cnc(-c3cc(O)cc4ccc(F)c(C#C)c34)c(C)c2n1)[C@]12CC(=C)CN1CCC21CC1` [Example 448, 5-Ethynyl-6-fluoro-4-(4-((1S,7S,8S)-8-fluoro-5-oxa-2-azabicyclo[5.1.0]octan-2-yl)-8-methyl-2-(((R)-6′-methylenetetrahydrospiro[cyclopropane-1,1′-pyrrolizin]-7a′(5′H)-yl)methoxy-d2)pyrido[4,3-d]pyrimidin-7-yl)naphthalen-2-ol]: less than 50 nM; for `C#Cc1c(F)ccc2cc(O)cc(-c3ncc4c(N5CCOC[C@H]6[C@H](F)[C@H]65)nc(OC[C@]56C/C(=C/F)CN5CCC65CC5)nc4c3C)c12` [Example 449, 5-ethynyl-6-fluoro-4-(4-((1S,7S,8S)-8-fluoro-5-oxa-2-azabicyclo[5.1.0]octan-2-yl)-2-(((R,Z)-6′-(fluoromethylene)tetrahydrospiro[cyclopropane-1,1′-pyrrolizin]-7a′(5′H)-yl)methoxy)-8-methylpyrido[4,3-d]pyrimidin-7-yl)naphthalen-2-ol]: less than 50 nM. `[2H]C([2H])(Oc1nc(N2CCOC[C@H]3[C@H](F)[C@H]32)c2cnc(-c3cc(N)cc4ccc(F)c(C#C)c34)c(C3CC3)c2n1)[C@@]12CCCN1C[C@H](F)C2` [Example 452, 4-(8-cyclopropyl-4-((1S,7S,8S)-8-fluoro-5-oxa-2-azabicyclo[5.1.0]octan-2-yl)-2-(((2R,7aS)-2-fluorotetrahydro-1H-pyrrolizin-7a(5H)-yl)methoxy-d2)pyrido[4,3-d]pyrimidin-7-yl)-5-ethynyl-6-fluoronaphthalen-2-amine]: the IC50 was in the range of 500 to 10000 nM. In the case of `[2H]C([2H])(Oc1nc(N2CCOC[C@H]3[C@H](F)[C@H]32)c2cnc(-c3cc(N)cc4ccc(F)c(C#C)c34)c(C=C)c2n1)[C@@]12CCCN1C[C@H](F)C2` [Example 455, 5-ethynyl-6-fluoro-4-(4-((1S,7S,8S)-8-fluoro-5-oxa-2-azabicyclo[5.1.0]octan-2-yl)-2-(((2R,7aS)-2-fluorotetrahydro-1H-pyrrolizin-7a(5H)-yl)methoxy-d2)-8-vinylpyrido[4,3-d]pyrimidin-7-yl)naphthalen-2-amine] it was less than 50 nM. The same measure for `[2H]C([2H])(Oc1nc(N2CCOC[C@H]3[C@H](F)[C@H]32)c2cnc(-c3cc(N)cc4ccc(F)c(C#C)c34)c(CC)c2n1)[C@@]12CCCN1C[C@H](F)C2` [Example 456, 4-(8-Ethyl-4-((1S,7S,8S)-8-fluoro-5-oxa-2-azabicyclo[5.1.0]octan-2-yl)-2-(((2R,7aS)-2-fluorotetrahydro-1H-pyrrolizin-7a(5H)-yl)methoxy-d2)pyrido[4,3-d]pyrimidin-7-yl)-5-ethynyl-6-fluoronaphthalen-2-amine]: less than 50 nM; for `[2H]C([2H])(Oc1nc(N2CCCC[C@H]3[C@H](F)[C@H]32)c2cnc(-c3cc(N)cc4ccc(F)c(C#C)c34)c(C)c2n1)[C@@]12CCCN1CC(=C)C2` [Example 457, 5-Ethynyl-6-fluoro-4-(4-((1S,7R,8S)-8-fluoro-2-azabicyclo[5.1.0]octan-2-yl)-8-methyl-2-(((S)-2-methylenetetrahydro-1H-pyrrolizin-7a(5H)-yl)methoxy-d2)pyrido[4,3-d]pyrimidin-7-yl)naphthalen-2-amine]: less than 50 nM. The compound `[2H]C([2H])(Oc1nc(N2CCCC[C@H]3[C@H](F)[C@H]32)c2cnc(-c3cc(N)cc4ccc(F)c(C#C)c34)c(C)c2n1)[C@]12CC(=C)CN1CCC21CC1` [Example 458, 5-Ethynyl-6-fluoro-4-(4-((1S,7R,8S)-8-fluoro-2-azabicyclo[5.1.0]octan-2-yl)-8-methyl-2-(((R)-6′-methylenetetrahydrospiro[cyclopropane-1,1′-pyrrolizin]-7a′(5′H)-yl)methoxy-d2)pyrido[4,3-d]pyrimidin-7-yl)naphthalen-2-amine] registered an IC50 of less than 50 nM.

As to `C#Cc1c(F)ccc2cc(N)cc(-c3ncc4c(N5CCOC[C@H]6[C@H](Cl)[C@H]65)nc(OC[C@]56CC(=C)CN5CCC65CC5)nc4c3C)c12` [Example 459, 4-(4-((1S,7S,8S)-8-Chloro-5-oxa-2-azabicyclo[5.1.0]octan-2-yl)-8-methyl-2-(((R)-6′-methylenetetrahydrospiro[cyclopropane-1,1′-pyrrolizin]-7a′(5′H)-yl)methoxy)pyrido[4,3-d]pyrimidin-7-yl)-5-ethynyl-6-fluoronaphthalen-2-amine], the IC50 was less than 50 nM.
